The target in assay [1] is T1, Neuraminidase (Influenza A virus, UniProt B4URF0). More on the design: species or system (A/duck/China/QJ/01(H5N1)).
Assay [2] has as its target T1, Neuraminidase. More on the design: species or system (A/chicken/Shandong/LY/2008(H9N2)).
In assay [3] the test system is Influenza A virus. The assay is classed as functional.
The subject of assay [4] is Influenza A virus. The assay can be described thus: Ratio of compound MED to oseltamivir MED for influenza A virus (A/duck/China/QJ/01(H5N1)) infected in chick embryo measured after 5 days by hemagglutination assay. The assay is classed as functional.
Assay [5] has as its system Influenza A virus. In words: Ratio of compound MED to oseltamivir carboxylate MED for influenza A virus (A/duck/China/QJ/01(H5N1)) infected in chick embryo measured after 5 days by hemagglutination assay. The assay is classed as functional.
A short description of assay [6]: Inhibition of neuraminidase.

T1 sequence (B4URF0 whole entry): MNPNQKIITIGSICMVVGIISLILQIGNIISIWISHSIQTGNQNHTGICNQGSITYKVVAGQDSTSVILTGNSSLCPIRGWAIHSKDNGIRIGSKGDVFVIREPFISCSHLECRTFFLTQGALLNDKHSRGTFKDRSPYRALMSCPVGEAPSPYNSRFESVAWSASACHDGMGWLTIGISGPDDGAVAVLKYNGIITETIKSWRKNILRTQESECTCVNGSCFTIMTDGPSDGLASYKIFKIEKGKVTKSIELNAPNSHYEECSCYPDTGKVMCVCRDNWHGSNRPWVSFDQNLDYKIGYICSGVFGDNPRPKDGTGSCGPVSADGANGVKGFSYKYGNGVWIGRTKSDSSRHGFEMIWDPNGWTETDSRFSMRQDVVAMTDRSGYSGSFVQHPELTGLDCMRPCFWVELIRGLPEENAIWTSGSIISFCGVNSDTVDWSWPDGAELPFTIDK

On to `C[C@@H](O)[C@H](N)C(=O)Nc1cc(NC(=O)/C=C/c2ccco2)ccc1O.Cl`, for which the 50% inhibitory concentration (IC50) was determined as 187 µM against Neuraminidase [1] and 200 µM at Neuraminidase [2]. Moreover, the MED with Influenza A virus [3] was found to be 5 µM. Further, the Ratio with Influenza A virus [4] and in the assay on Influenza A virus [5] was 4 each time.

Take `Cl.O=C(/C=C/c1ccco1)Nc1ccc(O)c(NC(=O)[C@@H]2C[C@@H](O)CN2)c1`: the 50% inhibitory concentration (IC50) turned out to be 109 µM at Neuraminidase [1] and 111 µM against Neuraminidase [2]. The MED in the assay with Influenza A virus [3] is 5 µM. Moreover, the Ratio in the assay with Influenza A virus [4] and in the assay with Influenza A virus [5] was 4 each time.

Turning to `CC(C)C[C@H](N)C(=O)Nc1cc(NC(=O)/C=C/c2ccco2)ccc1O.Cl`, the concentration for half-maximal inhibition (IC50) is 148 µM against Neuraminidase [1] and 179 µM on Neuraminidase [2]. For the same compound, the MED in the assay with Influenza A virus [3] is 5 µM. In addition, the Ratio with Influenza A virus [4] and with Influenza A virus [5] was 4 in each case.

Turning to `Cl.N[C@@H](Cc1c[nH]c2ccccc12)C(=O)Nc1cc(NC(=O)/C=C/c2ccco2)ccc1O`, the half-maximal inhibitory concentration (IC50) on Neuraminidase [1] stood at 189 µM; on Neuraminidase [2], 194 µM. This compound had an MED in the assay on Influenza A virus [3] of 2.5 µM. Also, the Ratio with Influenza A virus [4] and with Influenza A virus [5] was 4 in each case.

Turning to `CC[C@H](C)[C@H](N)C(=O)Nc1cc(NC(=O)/C=C/c2ccco2)ccc1O.Cl`, the figures for the concentration for half-maximal inhibition (IC50) against Neuraminidase [1] and at Neuraminidase [2] were 103 µM and 119 µM, respectively. The compound also registered an MED in the assay on Influenza A virus [3] of 2.5 µM. Also, the Ratio in the assay on Influenza A virus [4] and with Influenza A virus [5] was 4 in each case.

For `C[C@H](N)C(=O)Nc1cc(NC(=O)/C=C/c2ccco2)ccc1O.Cl`, the 50% inhibitory concentration (IC50) is 110 µM against Neuraminidase [1] and 91.7 µM against Neuraminidase [2]. Also, in the assay with Influenza A virus [3], the MED was determined as 5 µM. Besides, the Ratio in the assay with Influenza A virus [4] and in the assay with Influenza A virus [5] was 4 throughout.

Take `Cl.N[C@@H](CO)C(=O)Nc1cc(NC(=O)/C=C/c2ccco2)ccc1O`: the IC50 was determined as 143 µM against Neuraminidase [1] and 158 µM against Neuraminidase [2]. For the same compound, the MED in the assay on Influenza A virus [3] came out at 5 µM. The Ratio in the assay on Influenza A virus [4] and in the assay on Influenza A virus [5] was 4 each time.

Regarding `NC(Cn1ccc(=O)c(O)c1)C(=O)N[C@@H](Cc1ccccc1)C(=O)O` (stereo partly specified), the IC50 in assay [6] was found to be 1.8 µM.

Turning to `O=c1cc(-c2ccc(O)cc2)oc2cc(O)cc(O)c12` [APIGENIN], the Ratio in the assay on Influenza A virus [4] and in the assay with Influenza A virus [5] was 4 in each case.

For `C[C@H](N)C(=O)Nc1cc(NC(=O)/C=C/c2ccc(O)c(O)c2)ccc1O.Cl`, the values for the half-inhibitory concentration (IC50) against Neuraminidase [1] and against Neuraminidase [2] were 113 µM and 105 µM, respectively. Moreover, the MED with Influenza A virus [3] was 5 µM. The Ratio in the assay on Influenza A virus [4] and with Influenza A virus [5] was 4 in each case.

In the case of `CC(C)C[C@H](N)C(=O)Nc1cc(NC(=O)/C=C/c2ccc(O)c(O)c2)ccc1O.Cl`, the IC50 against Neuraminidase [1] came to 135 µM; at Neuraminidase [2], 154 µM. This compound yielded an MED in the assay on Influenza A virus [3] of 2.5 µM. Moreover, the Ratio in the assay with Influenza A virus [4] and with Influenza A virus [5] was 4 each time.

Take `CSCC[C@H](N)C(=O)Nc1cc(NC(=O)/C=C/c2ccco2)ccc1O.Cl`: the IC50 on Neuraminidase [1] is 121 µM; on Neuraminidase [2], 144 µM. In addition, the MED in the assay on Influenza A virus [3] came out at 5 µM. In addition, the Ratio in the assay on Influenza A virus [4] and in the assay with Influenza A virus [5] was 4 each time.

Consider `Cl.O=C(/C=C/c1ccco1)Nc1ccc(O)c(NC(=O)[C@@H]2CCCN2)c1`, for which the figures for the IC50 at Neuraminidase [1] and at Neuraminidase [2] were 57.8 µM and 85.3 µM, respectively. The compound further registered an MED in the assay with Influenza A virus [3] of 5 µM. Moreover, the Ratio with Influenza A virus [4] and in the assay with Influenza A virus [5] was 4 throughout.

Turning to `CC(C)[C@H](N)C(=O)Nc1cc(NC(=O)/C=C/c2ccco2)ccc1O.Cl`, the IC50 at Neuraminidase [1] is 175 µM; at Neuraminidase [2], 165 µM. In the assay with Influenza A virus [3], this compound came in with an MED of 2.5 µM. The Ratio in the assay with Influenza A virus [4] and with Influenza A virus [5] was 4 each time.

In assay [6], `NC(Cn1ccc(=O)c(O)c1)C(=O)N[C@@H](Cc1ccc(O)cc1)C(=O)O` (stereo partly specified) displayed an IC50 of 2.8 µM. This counts as single-digit micromolar.

In the case of `Cl.NCCC(=O)Nc1cc(NC(=O)/C=C/c2ccco2)ccc1O`, the half-maximal inhibitory concentration (IC50) worked out at 108 µM at Neuraminidase [1] and 118 µM against Neuraminidase [2]. This compound also showed an MED with Influenza A virus [3] of 5 µM. Moreover, the Ratio with Influenza A virus [4] and in the assay with Influenza A virus [5] was 4 throughout.

For the compound `Cl.NCC(=O)Nc1cc(NC(=O)/C=C/c2ccco2)ccc1O`, the values for the IC50 against Neuraminidase [1] and at Neuraminidase [2] were 139 µM and 175 µM, respectively. The MED in the assay on Influenza A virus [3] turned out to be 5 µM. The Ratio in the assay with Influenza A virus [4] and in the assay with Influenza A virus [5] was 4 each time.

`CC[C@H](C)[C@H](N)C(=O)Nc1cc(NC(=O)/C=C/c2ccc(O)c(O)c2)ccc1O.Cl`: the IC50 against Neuraminidase [1] came to 0.012 µM; against Neuraminidase [2], 0.0017 µM. For the same compound, the MED with Influenza A virus [3] worked out at 2.5 µM. The Ratio with Influenza A virus [4] and with Influenza A virus [5] was 4 in each case.

Regarding `Cl.N[C@@H](Cc1ccccc1)C(=O)Nc1cc(NC(=O)/C=C/c2ccco2)ccc1O`, the values for the half-maximal inhibitory concentration (IC50) against Neuraminidase [1] and against Neuraminidase [2] were 130 µM and 143 µM, respectively. Besides, in the assay on Influenza A virus [3], the MED amounted to 5 µM. Further, the Ratio in the assay with Influenza A virus [4] and in the assay with Influenza A virus [5] was 4 each time.

With `CCC(CC)O[C@@H]1C=C(C(=O)O)C[C@H](N)[C@H]1NC(C)=O.Cl` [OSELTAMIVIR CARBOXYLATE HYDROCHLORIDE], the MED with Influenza A virus [3] came to 0.625 µM.

Take `Cl.NCCCC(=O)Nc1cc(NC(=O)/C=C/c2ccco2)ccc1O`: the figures for the IC50 against Neuraminidase [1] and on Neuraminidase [2] were 132 µM and 167 µM, respectively. The same compound had an MED with Influenza A virus [3] of 5 µM. The Ratio in the assay with Influenza A virus [4] and with Influenza A virus [5] was 4 each time.

`CCOC(=O)C1=C[C@@H](OC(CC)CC)[C@H](NC(C)=O)[C@@H](N)C1.O=P(O)(O)O` [OSELTAMIVIR PHOSPHATE] yielded an MED in the assay on Influenza A virus [3] of 0.625 µM.

Consider `CC(C)[C@H](N)C(=O)Nc1cc(NC(=O)/C=C/c2ccc(O)c(O)c2)ccc1O.Cl`, for which the IC50 on Neuraminidase [1] turned out to be 114 µM; against Neuraminidase [2] it was 138 µM. The compound further yielded an MED in the assay with Influenza A virus [3] of 2.5 µM. Also, the Ratio in the assay with Influenza A virus [4] and in the assay with Influenza A virus [5] was 4 in each case.

For `Cl.NCCCC[C@H](N)C(=O)Nc1cc(NC(=O)/C=C/c2ccco2)ccc1O`, the values for the IC50 against Neuraminidase [1] and against Neuraminidase [2] were 225 µM and 215 µM, respectively. In the assay with Influenza A virus [3], this compound yielded an MED of 5 µM. Further, the Ratio with Influenza A virus [4] and in the assay on Influenza A virus [5] was 4 each time.

For the compound `Cl.N=C(NCCC[C@H](N)C(=O)Nc1cc(NC(=O)/C=C/c2ccco2)ccc1O)N[N+](=O)[O-]`, the IC50 at Neuraminidase [1] is 192 µM; on Neuraminidase [2], 193 µM. Moreover, the MED in the assay on Influenza A virus [3] worked out at 5 µM. The Ratio in the assay with Influenza A virus [4] and with Influenza A virus [5] was 4 in each case.

The record behind these values is ChEMBL document CHEMBL3046304, “Discovery of a series of novel compounds with moderate anti-avian H5N1 influenza virus activity in chick embryo” (Med Chem Res, 2013).
